Measured values taken from paper PMC8550792, “Evolution of kinase polypharmacology across HSP90 drug discovery” (Cell Chemical Biology, 2021).
Where “and” joins values, the source holds several entries; their conditions need not be identical. Equal values may be shown once. Read-outs that look alike come from different tables or passages of the source.

Columns and labels:
[1] = target: T1, LYN B (Homo sapiens, UniProt P07948); assay: HotSpot in vitro kinase radiometric assay; type: biochemical
T1 construct: purchased Reaction Biology (HotSpot contract assay)
Method in brief: (§1)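 Radiometric filter-binding read-out of 32P/33P-labelled phosphoproduct captured on filter paper. Reactions contain kinase, substrate, cofactors and ɣ-labelled ATP plus test compound; no modified substrate or coupling enzyme used.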

[2] = target: ABL1 (Homo sapiens, UniProt P00519); assay: HotSpot in vitro kinase radiometric assay; type: biochemical; design: purchased Reaction Biology (HotSpot contract assay)
[3] = target: T2, ABL2/ARG (Homo sapiens, UniProt P42684); assay: HotSpot in vitro kinase radiometric assay; type: biochemical
T2 construct: purchased Reaction Biology (HotSpot contract assay)

[4] = tested on: HSP90AB1; design: method as in ChEMBL23 (accessed: 23/08/2018); settings: average of reported values; ref ChEMBL23 (accessed: 23/08/2018); cited from earlier work
[5] = tested on: 382 unique human kinases; assay: biochemical; type: biochemical
[6] = target: T3, 382 unique human kinases (Homo sapiens, UniProt P11802); assay: biochemical; type: biochemical; settings: CDK4/cyclin D3; [ATP] 5 µM; compound 10 uM; read-out: % Enzyme Activity (relative to DMSO controls)
T3 construct: purchased Reaction Biology (HotSpot contract assay)

[7] = target: T4, 382 unique human kinases (Homo sapiens, UniProt P50750); assay: biochemical; type: biochemical; settings: CDK9/cyclin T1; 10 uM; read-out: % Enzyme Activity (relative to DMSO controls)
T4 construct: purchased Reaction Biology (HotSpot contract assay)

[8] = target: T5, 382 unique human kinases (Homo sapiens, UniProt P24941); assay: biochemical; type: biochemical; settings: 10 uM, read-out: % Enzyme Activity (relative to DMSO controls)
T5 construct: purchased Reaction Biology (HotSpot contract assay)

[9] = target: T6, TRKA-TFG (TRK-T3) (Homo sapiens, UniProt P04629+Q92734); assay: HotSpot in vitro kinase radiometric assay; type: biochemical
T6 construct: purchased Reaction Biology (HotSpot contract assay)

[10] = target: DDR1 (Homo sapiens, UniProt Q08345); assay: HotSpot in vitro kinase radiometric assay; type: biochemical; design: purchased Reaction Biology (HotSpot contract assay)
[11] = target: T7, FGR (Homo sapiens, UniProt P09769); assay: HotSpot in vitro kinase radiometric assay; type: biochemical
T7 construct: purchased Reaction Biology (HotSpot contract assay)

[12] = target: T8, TRKA (Homo sapiens, UniProt P04629); assay: HotSpot in vitro kinase radiometric assay; type: biochemical
T8 construct: purchased Reaction Biology (HotSpot contract assay)
Method in brief: as §1

[13] = target: T9, PASK (Homo sapiens, UniProt Q96RG2); assay: HotSpot in vitro kinase radiometric assay; type: biochemical
T9 construct: purchased Reaction Biology (HotSpot contract assay)
Method in brief: as §1

[14] = target: T10, BLK (Homo sapiens, UniProt P51451); assay: HotSpot in vitro kinase radiometric assay; type: biochemical
T10 construct: purchased Reaction Biology (HotSpot contract assay)
Method in brief: as §1

[15] = target: T11, PDK2/PDHK2 (Homo sapiens, UniProt Q15119); assay: HotSpot in vitro kinase radiometric assay; type: biochemical
T11 construct: purchased Reaction Biology (HotSpot contract assay)
Method in brief: as §1

[16] = target: T12, c-Src (Homo sapiens, UniProt P12931); assay: HotSpot in vitro kinase radiometric assay; type: biochemical
T12 construct: purchased Reaction Biology (HotSpot contract assay)
Method in brief: as §1

[17] = target: T13, PDK4/PDKH4 (Homo sapiens, UniProt Q16654); assay: HotSpot in vitro kinase radiometric assay; type: biochemical
T13 construct: purchased Reaction Biology (HotSpot contract assay)
Method in brief: as §1

[18] = target: T14, PEAK1 (Homo sapiens, UniProt Q9H792); assay: HotSpot in vitro kinase radiometric assay; type: biochemical
T14 construct: purchased Reaction Biology (HotSpot contract assay)

[19] = target: T15, FYN (Homo sapiens, UniProt P06241); assay: HotSpot in vitro kinase radiometric assay; type: biochemical
T15 construct: purchased Reaction Biology (HotSpot contract assay)
T15 sequence (P06241 whole entry): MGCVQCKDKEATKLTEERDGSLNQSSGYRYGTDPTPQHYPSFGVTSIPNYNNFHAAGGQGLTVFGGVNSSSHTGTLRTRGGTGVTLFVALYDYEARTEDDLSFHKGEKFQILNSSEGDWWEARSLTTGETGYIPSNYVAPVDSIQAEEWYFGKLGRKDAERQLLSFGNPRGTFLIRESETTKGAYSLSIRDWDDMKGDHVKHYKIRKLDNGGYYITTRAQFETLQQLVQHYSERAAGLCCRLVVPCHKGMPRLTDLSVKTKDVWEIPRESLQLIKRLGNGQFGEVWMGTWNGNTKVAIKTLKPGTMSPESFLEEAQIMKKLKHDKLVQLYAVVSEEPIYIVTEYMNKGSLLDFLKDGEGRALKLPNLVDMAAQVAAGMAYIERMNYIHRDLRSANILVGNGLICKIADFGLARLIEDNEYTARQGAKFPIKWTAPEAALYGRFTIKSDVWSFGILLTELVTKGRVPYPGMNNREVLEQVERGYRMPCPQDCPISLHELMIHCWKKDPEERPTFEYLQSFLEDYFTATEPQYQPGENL

T14 sequence (Q9H792 whole entry): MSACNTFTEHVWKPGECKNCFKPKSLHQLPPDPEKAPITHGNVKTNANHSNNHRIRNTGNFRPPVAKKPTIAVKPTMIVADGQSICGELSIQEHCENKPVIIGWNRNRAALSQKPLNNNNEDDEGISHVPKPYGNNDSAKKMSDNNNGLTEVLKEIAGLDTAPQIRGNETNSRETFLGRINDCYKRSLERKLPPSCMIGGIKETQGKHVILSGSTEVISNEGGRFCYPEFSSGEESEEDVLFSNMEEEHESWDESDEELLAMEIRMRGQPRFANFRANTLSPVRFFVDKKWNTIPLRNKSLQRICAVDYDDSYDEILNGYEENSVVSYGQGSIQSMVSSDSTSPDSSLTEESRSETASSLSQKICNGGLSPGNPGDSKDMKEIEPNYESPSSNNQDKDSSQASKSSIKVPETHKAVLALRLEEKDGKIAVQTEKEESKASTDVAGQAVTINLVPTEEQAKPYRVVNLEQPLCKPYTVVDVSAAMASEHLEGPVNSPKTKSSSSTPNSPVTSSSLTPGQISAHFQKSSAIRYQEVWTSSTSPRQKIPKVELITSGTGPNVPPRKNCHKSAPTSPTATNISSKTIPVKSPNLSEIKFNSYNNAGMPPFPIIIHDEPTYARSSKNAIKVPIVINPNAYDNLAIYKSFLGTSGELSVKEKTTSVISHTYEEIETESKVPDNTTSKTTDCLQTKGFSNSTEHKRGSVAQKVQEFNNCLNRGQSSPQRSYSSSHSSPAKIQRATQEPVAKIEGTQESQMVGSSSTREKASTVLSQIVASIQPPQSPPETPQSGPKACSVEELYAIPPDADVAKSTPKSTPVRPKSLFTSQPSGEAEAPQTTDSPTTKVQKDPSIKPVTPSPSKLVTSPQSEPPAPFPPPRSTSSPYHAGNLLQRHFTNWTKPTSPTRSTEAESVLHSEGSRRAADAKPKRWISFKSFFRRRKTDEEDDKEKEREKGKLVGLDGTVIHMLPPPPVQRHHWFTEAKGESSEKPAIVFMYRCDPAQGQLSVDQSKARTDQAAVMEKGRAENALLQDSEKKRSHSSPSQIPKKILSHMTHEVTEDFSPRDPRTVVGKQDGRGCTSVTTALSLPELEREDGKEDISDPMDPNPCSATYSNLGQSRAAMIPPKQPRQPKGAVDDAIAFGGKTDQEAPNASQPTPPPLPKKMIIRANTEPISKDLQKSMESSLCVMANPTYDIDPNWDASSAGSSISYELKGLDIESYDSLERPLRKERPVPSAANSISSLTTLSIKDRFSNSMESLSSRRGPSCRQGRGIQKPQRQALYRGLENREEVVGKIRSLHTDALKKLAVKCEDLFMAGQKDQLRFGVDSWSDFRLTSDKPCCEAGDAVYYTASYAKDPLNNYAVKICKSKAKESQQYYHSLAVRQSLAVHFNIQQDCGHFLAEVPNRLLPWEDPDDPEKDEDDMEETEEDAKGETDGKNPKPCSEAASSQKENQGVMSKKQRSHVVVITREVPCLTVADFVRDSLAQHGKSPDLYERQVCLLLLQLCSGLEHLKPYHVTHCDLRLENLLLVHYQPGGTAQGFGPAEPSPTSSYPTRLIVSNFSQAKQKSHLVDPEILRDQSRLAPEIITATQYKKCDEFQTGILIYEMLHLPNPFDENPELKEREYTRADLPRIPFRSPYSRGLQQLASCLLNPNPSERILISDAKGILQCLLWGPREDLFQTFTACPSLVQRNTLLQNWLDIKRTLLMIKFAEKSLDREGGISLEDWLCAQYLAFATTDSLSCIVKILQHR
T2 sequence (P42684 whole entry): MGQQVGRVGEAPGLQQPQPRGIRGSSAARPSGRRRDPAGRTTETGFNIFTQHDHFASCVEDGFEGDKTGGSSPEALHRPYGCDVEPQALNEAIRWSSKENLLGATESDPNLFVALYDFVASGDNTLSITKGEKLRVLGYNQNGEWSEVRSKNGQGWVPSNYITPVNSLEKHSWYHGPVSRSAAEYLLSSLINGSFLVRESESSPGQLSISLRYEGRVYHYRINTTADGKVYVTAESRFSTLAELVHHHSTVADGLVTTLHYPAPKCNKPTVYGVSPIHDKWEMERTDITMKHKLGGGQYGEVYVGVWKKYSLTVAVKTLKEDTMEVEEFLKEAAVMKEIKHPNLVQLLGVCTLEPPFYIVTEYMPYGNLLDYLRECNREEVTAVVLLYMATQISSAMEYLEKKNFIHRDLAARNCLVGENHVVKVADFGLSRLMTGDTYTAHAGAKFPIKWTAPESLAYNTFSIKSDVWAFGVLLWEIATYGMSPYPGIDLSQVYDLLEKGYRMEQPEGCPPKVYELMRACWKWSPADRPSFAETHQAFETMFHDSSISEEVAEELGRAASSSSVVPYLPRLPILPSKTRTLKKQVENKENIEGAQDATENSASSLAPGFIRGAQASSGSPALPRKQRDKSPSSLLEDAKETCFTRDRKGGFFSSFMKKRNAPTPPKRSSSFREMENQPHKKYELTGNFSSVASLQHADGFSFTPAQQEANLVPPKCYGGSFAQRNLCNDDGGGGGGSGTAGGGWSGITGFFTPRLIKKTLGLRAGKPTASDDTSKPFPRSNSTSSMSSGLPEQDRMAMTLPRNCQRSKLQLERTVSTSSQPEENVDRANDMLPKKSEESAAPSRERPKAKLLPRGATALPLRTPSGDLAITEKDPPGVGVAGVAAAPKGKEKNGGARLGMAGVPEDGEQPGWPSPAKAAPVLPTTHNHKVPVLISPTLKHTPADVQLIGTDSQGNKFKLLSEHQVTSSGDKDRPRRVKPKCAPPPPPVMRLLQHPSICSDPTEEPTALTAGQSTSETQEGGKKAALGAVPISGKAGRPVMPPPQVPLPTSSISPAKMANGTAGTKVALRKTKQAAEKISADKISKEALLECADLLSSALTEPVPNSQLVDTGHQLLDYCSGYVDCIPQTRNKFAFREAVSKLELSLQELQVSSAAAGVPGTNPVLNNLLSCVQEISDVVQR
Sequence of ABL1 (P00519 whole entry): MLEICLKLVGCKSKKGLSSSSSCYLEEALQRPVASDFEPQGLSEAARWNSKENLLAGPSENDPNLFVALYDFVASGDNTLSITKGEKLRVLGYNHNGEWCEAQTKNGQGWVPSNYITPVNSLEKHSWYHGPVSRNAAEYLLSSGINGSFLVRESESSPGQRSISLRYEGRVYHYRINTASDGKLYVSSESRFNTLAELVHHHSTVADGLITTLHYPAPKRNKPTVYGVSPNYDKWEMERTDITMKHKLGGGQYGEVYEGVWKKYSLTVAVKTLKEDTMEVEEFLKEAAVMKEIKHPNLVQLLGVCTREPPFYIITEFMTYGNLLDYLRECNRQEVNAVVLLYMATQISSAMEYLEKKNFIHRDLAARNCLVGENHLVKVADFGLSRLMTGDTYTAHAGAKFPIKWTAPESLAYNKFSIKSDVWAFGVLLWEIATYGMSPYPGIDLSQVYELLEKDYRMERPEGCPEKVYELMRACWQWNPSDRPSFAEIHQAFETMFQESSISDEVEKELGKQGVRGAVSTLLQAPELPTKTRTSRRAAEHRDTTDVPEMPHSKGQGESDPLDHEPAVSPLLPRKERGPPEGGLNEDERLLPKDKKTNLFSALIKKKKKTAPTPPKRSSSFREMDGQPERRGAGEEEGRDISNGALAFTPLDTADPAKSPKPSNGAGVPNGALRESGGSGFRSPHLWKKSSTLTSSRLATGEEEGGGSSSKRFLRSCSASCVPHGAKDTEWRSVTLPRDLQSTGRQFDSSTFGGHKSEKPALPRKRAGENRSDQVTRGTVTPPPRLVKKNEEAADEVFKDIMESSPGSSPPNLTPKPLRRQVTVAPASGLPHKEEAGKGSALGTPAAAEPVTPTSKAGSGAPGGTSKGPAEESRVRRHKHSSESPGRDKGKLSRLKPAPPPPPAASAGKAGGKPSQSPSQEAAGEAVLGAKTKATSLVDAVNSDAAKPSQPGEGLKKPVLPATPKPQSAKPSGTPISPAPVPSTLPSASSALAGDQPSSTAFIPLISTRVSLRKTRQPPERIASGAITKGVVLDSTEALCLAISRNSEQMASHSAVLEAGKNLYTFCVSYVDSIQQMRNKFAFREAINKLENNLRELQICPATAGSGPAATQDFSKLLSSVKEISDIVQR
T13 sequence (Q16654 whole entry): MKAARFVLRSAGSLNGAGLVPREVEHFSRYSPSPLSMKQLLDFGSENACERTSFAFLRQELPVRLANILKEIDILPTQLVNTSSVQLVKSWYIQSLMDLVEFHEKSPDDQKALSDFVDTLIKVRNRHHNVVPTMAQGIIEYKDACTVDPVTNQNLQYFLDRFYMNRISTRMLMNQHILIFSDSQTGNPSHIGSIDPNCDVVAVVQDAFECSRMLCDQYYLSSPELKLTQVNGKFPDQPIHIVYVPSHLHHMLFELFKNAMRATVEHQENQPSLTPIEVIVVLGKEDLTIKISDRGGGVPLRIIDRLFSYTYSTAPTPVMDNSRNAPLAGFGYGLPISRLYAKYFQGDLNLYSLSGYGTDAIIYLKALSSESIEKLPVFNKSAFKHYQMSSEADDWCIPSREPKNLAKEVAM

Compound: CC(C)c1cc(-c2n[nH]c(=O)n2-c2ccc3c(ccn3C)c2)c(O)cc1O [Ganetespib]
- % inhibition at 10 uM: LYN B ([1]; 10 μM, Fig 6C median ± standard deviation (n = 2)): not inhibited
- HILLSLOPE ([2]; ABL1, single replicate curves): -0.99 and -0.93 and -0.96
- IC50 ([2]; ABL1, single replicate curves, read-out: IC50): 625 nM and 519 nM and 539 nM
- IC50 ([2]; radiometric 10-point concentration-response, n = 3, read-out: in vitro biochemical IC50, ABL1): 561 nM
- inhibition at 1 µM ([2]; read-out: % inhibition of ABL1 at 1 μM, 1 μM, secondary screening): > 80%
- HILLSLOPE ([3]; ABL2, single replicate curves): -0.77 and -0.90 and -0.92
- IC50 ([3]; ABL2, single replicate curves, read-out: IC50): 174 nM and 230 nM and 240 nM
- IC50 ([3]; radiometric 10-point concentration-response, n = 3, read-out: in vitro biochemical IC50, ABL2): 215 nM
- inhibition at 1 µM ([3]; read-out: % inhibition of ABL2 at 1 μM, 1 μM, secondary screening): > 85%
- pActivity, HSP90AB1 [4]: 8.3
- number of kinases with inhibition of catalytic activity below 1 μM [5]: 4
- number of native kinases inhibited by more than 85% at 10 μM ([5]; 10 μM): 20
- In vitro screening: kinases hit / kinases screened ([5]; Figure 3): 21/382
- number of off-target kinases experimentally identified, In vitro binding (KinomeSCAN) ([5]; cutoff of >85% inhibition at 10 μM, luminespib and ganetespib large kinome panel, others 16-kinase panel): 21
- remaining activity at 10 µM [6]: 53.8%
- remaining activity at 10 µM [7]: 100%
- remaining activity at 10 µM ([8]; CDK2/Cyclin A1): 108%
- remaining activity at 10 µM ([8]; CDK2/cyclin E): 93.7%
- HILLSLOPE ([9]; TRKA-TFG, single replicate curves): -1.03 and -1.06 and -1.02
- IC50 ([9]; TRKA-TFG, single replicate curves, read-out: IC50): 328 nM and 331 nM and 326 nM
- IC50 ([9]; radiometric 10-point concentration-response, n = 3, read-out: in vitro biochemical IC50, TRKA-TFG): 329 nM
- inhibition at 1 µM ([9]; read-out: % inhibition of TRKA-TFG at 1 μM, 1 μM, secondary screening): > 80%
- inhibition at 10 µM ([9]; read-out: % inhibition of TRKA-TFG at 10 μM, 10 μM, kinome profiling): > 85%
- HILLSLOPE ([10]; DDR1, single replicate curves): -0.94 and -1.03 and -0.91
- IC50 ([10]; DDR1, single replicate curves, read-out: IC50): 361 nM and 363 nM and 289 nM
- IC50 ([10]; radiometric 10-point concentration-response, n = 3, read-out: in vitro biochemical IC50, DDR1): 338 nM
- inhibition at 1 µM ([10]; read-out: % inhibition of DDR1 at 1 μM, 1 μM, secondary screening): > 85%

Compound: CCNC(=O)c1noc(-c2cc(Cl)c(O)cc2O)c1-c1ccc(OC)cc1 [VER-50589]
- % Enzyme Activity (relative to DMSO controls) ([11]; FGR, 10uM, ATP 50 uM, Data 1, Data 2): 109.55%
- remaining activity at 10 µM ([11]; FGR, 10uM, ATP 50 uM, Data 1, Data 2, read-out: % Enzyme Activity (relative to DMSO controls)): 104%
- inhibition at 10 µM ([11]; read-out: % inhibition at 10 uM: FGR, 10 μM, Fig 6C median ± standard deviation (n = 2)): -7 ± 4%
- % Enzyme Activity (relative to DMSO controls) ([12]; TRKA, 10uM, ATP 100 uM, Data 1, Data 2): 96.8%
- remaining activity at 10 µM ([12]; TRKA, 10uM, ATP 100 uM, Data 1, Data 2, read-out: % Enzyme Activity (relative to DMSO controls)): 100%
- inhibition at 10 µM ([12]; read-out: % inhibition at 10 uM: TRKA, 10 μM, Fig 6C median ± standard deviation (n = 2)): 2 ± 2%
- % Enzyme Activity (relative to DMSO controls) ([13]; PASK, 10uM, ATP 50 uM, Data 1, Data 2): 102.75%
- remaining activity at 10 µM ([13]; PASK, 10uM, ATP 50 uM, Data 1, Data 2, read-out: % Enzyme Activity (relative to DMSO controls)): 109%
- inhibition at 10 µM ([13]; read-out: % inhibition at 10 uM: PASK, 10 μM, Fig 6C median ± standard deviation (n = 2)): -6 ± 5%
- % Enzyme Activity (relative to DMSO controls) ([1]; LYN B, 10uM, ATP 20 uM, Data 1, Data 2): 103.45%
- remaining activity at 10 µM ([1]; LYN B, 10uM, ATP 20 uM, Data 1, Data 2, read-out: % Enzyme Activity (relative to DMSO controls)): 105%
- inhibition at 10 µM ([1]; read-out: % inhibition at 10 uM: LYN B, 10 μM, Fig 6C median ± standard deviation (n = 2)): -4 ± 1%
- % Enzyme Activity (relative to DMSO controls) ([14]; BLK, 10uM, ATP 10 uM, Data 1, Data 2): 99.82%
- remaining activity at 10 µM ([14]; BLK, 10uM, ATP 10 uM, Data 1, Data 2, read-out: % Enzyme Activity (relative to DMSO controls)): 94%
- inhibition at 10 µM ([14]; read-out: % inhibition at 10 uM: BLK, 10 μM, Fig 6C median ± standard deviation (n = 2)): 3 ± 4%
- % Enzyme Activity (relative to DMSO controls) ([15]; PDK2/PDHK2, 10uM, ATP 15 uM, Data 1, Data 2): 9.11% and 0.34%
- inhibition at 10 µM ([15]; read-out: % inhibition at 10 uM: PDK2, 10 μM, Fig 6C median ± standard deviation (n = 2)): 95 ± 6%
- % Enzyme Activity (relative to DMSO controls) ([16]; c-Src, 10uM, ATP 15 uM, Data 1, Data 2): 103.77% and 68.69%
- inhibition at 10 µM ([16]; read-out: % inhibition at 10 uM: SRC, 10 μM, Fig 6C median ± standard deviation (n = 2)): 14 ± 25%
- % Enzyme Activity (relative to DMSO controls) ([17]; PDK4/PDKH4, 10uM, ATP 30 uM, Data 1, Data 2): -0.13% and 4.42%
- inhibition at 10 µM ([17]; read-out: % inhibition at 10 uM: PDK4, 10 μM, Fig 6C median ± standard deviation (n = 2)): 98 ± 3%
- % Enzyme Activity (relative to DMSO controls) ([18]; PEAK1, 10uM, ATP 30 uM, Data 1, Data 2): 104.61%
- remaining activity at 10 µM ([18]; PEAK1, 10uM, ATP 30 uM, Data 1, Data 2, read-out: % Enzyme Activity (relative to DMSO controls)): 105%
- inhibition at 10 µM ([18]; read-out: % inhibition at 10 uM: PEAK1, 10 μM, Fig 6C median ± standard deviation (n = 2)): -5 ± 1%
- % Enzyme Activity (relative to DMSO controls) ([2]; ABL1, 10uM, ATP 40 uM, Data 1, Data 2): 99.15%
- remaining activity at 10 µM ([2]; ABL1, 10uM, ATP 40 uM, Data 1, Data 2, read-out: % Enzyme Activity (relative to DMSO controls)): 96%
- inhibition at 10 µM ([2]; read-out: % inhibition at 10 uM: ABL1, 10 μM, Fig 6C median ± standard deviation (n = 2)): 2 ± 2%
- % Enzyme Activity (relative to DMSO controls) ([3]; ABL2/ARG, 10uM, ATP 30 uM, Data 1, Data 2): 107.1%
- remaining activity at 10 µM ([3]; ABL2/ARG, 10uM, ATP 30 uM, Data 1, Data 2, read-out: % Enzyme Activity (relative to DMSO controls)): 99.9%
- inhibition at 10 µM ([3]; read-out: % inhibition at 10 uM: ABL2, 10 μM, Fig 6C median ± standard deviation (n = 2)): -4 ± 5%
- pActivity, HSP90AB1 [4]: 7.55
- % Enzyme Activity (relative to DMSO controls) ([19]; FYN, 10uM, ATP 30 uM, Data 1, Data 2): 116.15%
- remaining activity at 10 µM ([19]; FYN, 10uM, ATP 30 uM, Data 1, Data 2, read-out: % Enzyme Activity (relative to DMSO controls)): 109%
- inhibition at 10 µM ([19]; read-out: % inhibition at 10 uM: FYN, 10 μM, Fig 6C median ± standard deviation (n = 2)): -13 ± 5%
- % Enzyme Activity (relative to DMSO controls) ([10]; DDR1, 10uM, ATP 100 uM, Data 1, Data 2): 93.93%
- remaining activity at 10 µM ([10]; DDR1, 10uM, ATP 100 uM, Data 1, Data 2, read-out: % Enzyme Activity (relative to DMSO controls)): 90.3%
- inhibition at 10 µM ([10]; read-out: % inhibition at 10 uM: DDR1, 10 μM, Fig 6C median ± standard deviation (n = 2)): 8 ± 3%
